Data published in patent publication US11548946B2, “Carrier-PD-L1 binding agent compositions for treating cancers” (Mayo Foundation for Medical Education and Research, priority 2016, dated 2023).

Assays:
[1] = test system: PD-L1 positive C8161 melanoma tumor cells; assay: In vivo efficacy in athymic nude mice bearing C8161 melanoma tumors; conditions: single IV tail vein dose; atezolizumab 18 mg/kg, ABX 45 mg/kg, AA130 18 mg/kg atezolizumab and 45 mg/kg ABX
Method: FIGS. 11A-11D show the change in tumor volume over time in mice that were injected with 2×10^6 PD-L1 positive C8161 melanoma tumor cells, then treated by 100 ul IV tail vein injection with saline (FIG. 11A), atezolizumab alone (18 mg/kg; FIG. 11B), ABX alone (45 mg/kg; FIG. 11C) and AA130 (18 mg/kg atezolizumab and 45 mg/kg ABX; FIG. 11D) one time. Tumor growth was monitored 3 times per week. Tumor size was calculated with the equation: (length×width^2)/2.
Kaplan Meier curves were generated using Graph Pad software. The median survival for each group was 14, 13, 16, and 21.5 days for saline, atezolizumab, Abraxane and AA130, respectively. Survival differences between AA130 and all other groups were significant, with p-values of 0.0008 for saline, 0.0015 for atezolizumab, and 0.0113 for ABX.
Athymic nude mice (Harlan Sprague Dawley) were injected with 2×10^6 PD-L1 positive C8161 melanoma tumor cells. The tumors were allowed to grow until about 600 mm^3 and were treated by 100 μl IV tail vein injection with saline, atezolizumab alone (18 mg/kg), ABX alone (45 mg/kg) and AA130 (18 mg/kg atezolizumab and 45 mg/kg ABX) one time (FIGS. 11A-11D). Tumor growth was monitored 3 times/week. Tumor size was calculated with the equation: (length×width^2)/2.
Kaplan Meier curves were generated using Graph Pad software. […]

[2] = target: ABX; assay: Biolayer interferometry (BLItz) of biotinylated atezolizumab on streptavidin probes exposed to ABX; conditions: ABX at 100, 500, 1000 μg/mL in 1×PBS; read-out: Kd (binding affinity between atezolizumab and ABX)
Method: Biolayer interferometry (BLItz) (Forte Bioscience) was performed using streptavidin probes.
To determine whether atezolizumab and ABX are capable of interacting to form nanoparticle complexes, Biolayer interferometry (BLItz) (Forte Bioscience) was performed using streptavidin probes. 100 ug/ml of biotinylated atezolizumab in 1×PBS was bound to the streptavidin probe. After washing unbound atezolizumab from the probe, the antibody-bound probe was exposed to ABX at concentrations of 100, 500, 1000 μg/mL in 1×PBS. An antibody probe exposed to PBS was used as background and background was subtracted. BLItz software was used to calculate dissociation constants (FIG. 7).

[3] = target: T1, CD20 (Homo sapiens, UniProt P11836); assay: Flow cytometry: blocking of fluorescent anti-CD20 labeling of Daudi cells; assay type: cell-based; conditions: CD20 positive Daudi lymphoma cells pretreated prior to CD20 labeling
T1 construct: CD20 positive Daudi lymphoma cells; endogenous in cells; host or cells: Daudi lymphoma cells
T1 sequence (P11836 1-297): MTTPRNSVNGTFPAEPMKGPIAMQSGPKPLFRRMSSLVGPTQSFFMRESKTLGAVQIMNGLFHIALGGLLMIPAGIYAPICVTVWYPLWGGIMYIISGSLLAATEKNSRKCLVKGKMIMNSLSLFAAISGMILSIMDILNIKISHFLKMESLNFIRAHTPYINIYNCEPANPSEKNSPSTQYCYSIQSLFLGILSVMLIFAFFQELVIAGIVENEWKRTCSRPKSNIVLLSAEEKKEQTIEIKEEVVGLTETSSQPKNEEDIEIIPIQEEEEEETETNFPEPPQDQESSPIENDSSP
From the text: FIGS. 1A-1F depicts the results of an experiment in which CD20 positive Daudi lymphoma cells were labeled with fluorescent tagged anti-human CD20 or isotype matched control in panels F and A, respectively, and analyzed by flow cytometry. In the other panels, the Daudi cells were pretreated with ABRAXANE® (ABX; FIG. 1B), ABX/rituximab nanoparticles (AR160; FIG. 1C), lyophilized and resuspended AR160 (AR160L; FIG. 1D), or Rituxan (FIG. 1E) prior to CD20 labeling.
CD20 positive Daudi lymphoma cells were labeled with fluorescent tagged anti-human CD20 or isotype matched control in panel F and A, respectively, and analyzed by flow cytometry. In the other panels, the Daudi cells were pretreated with ABX, AR160, AR160L (AR160 lyophilized and resuspended into a solution suitable for injection), or Rituxan prior to CD20 labeling.

CD20 binding of fluorescent anti-CD20 antibody after pretreatment [3] | Substance | median survival [1] [days] | Kd [2] [nM]
– | atezolizumab: anti-PD-L1 mAb, humanized monoclonal antibody | 13 | 1.46
specifically blocked | Rituxan: rituximab, anti-CD20 antibody used as free antibody control | – | –
